Laboratory results reported in patent US20160220569A1, “CDK4/6 Inhibitor Dosage Formulations For The Protection Of Hematopoietic Stem And Progenitor Cells During Chemotherapy” (G1 Therapeutics, Inc., priority 2015, published 2016).
Like-named read-outs stand apart in the source and are kept apart here.

Experiment: 14-day oral gavage toxicokinetic study in rats
Type: in vivo
Conditions: female, rat, plasma, po; for half-life: read-out: t½ (converted); for concentration at 0.5 h / concentration at 2 h / concentration at 4 h / concentration at 8 h / concentration at 12 h / concentration at 24 h / concentration at 1 h / concentration at […]: rats
Protocol: Plasma was obtained from blood samples collected from rats in a composite sampling scheme, with 3 samples collected per sex, per dose, at each target collection time, as illustrated in Table 21 to Table 25. Samples were collected from the vehicle control group on Day 1 and Day 14 at 3 hour after administration. […] Blood samples were collected in tubes containing K3EDTA as an anticoagulant and placed on ice until processed to plasma via centrifugation. Samples were stored frozen at −80° C. until shipment to the bioanalytical laboratory for analysis.
The following parameters were determined:
Cmax: Maximum observed plasma concentration (ng/mL).
A value of 0 ng/mL was assigned to all values below the lower limit of quantitation (BLQ, <10.0 ng/mL).
AUC(0-inf): Area under the plasma concentration vs. time curve extrapolated from 0 to infinity (ng*h/mL), calculated as AUC(0-t)+AUC(t-inf) where AUC(t-inf) is calculated as last measurable concentration (CLast) divided by ke, where ke is the elimination rate constant determined by linear regression of the last three analytically measured points on the log plasma concentration vs. time curve. The selection criteria of the data points for inclusion in the calculation of ke required that at least three data points representing the terminal phase (after Tmax) were regressed and that R2≧0.850 when rounded.
CL: Clearance (L/h/kg), calculated as the dose divided by AUC(0-t).
Vd: Volume of distribution (L/kg), calculated as dose divided by the product of ke and AUC(0-inf).
Vdss: Steady state volume of distribution (L/kg), calculated as clearance […] mean residence time, where mean residence time is calculated as the area under the first moment curve divided by AUC(0-t).
t½: Elimination half-life (h), calculated as ln(2)/ke, where ke is the elimination rate constant determined by linear regression. Half-life was defined as not determined if regression criteria (specified in AUC(0-inf) above) were not met.
Cmax/Dose: Normalized Cmax, calculated as Cmax divided by total dose.
AUC/Dose: Normalized AUC, calculated as AUC(0-t) divided by total dose.
ii. Statistical Analysis Mean and standard deviation (SD) were calculated in Watson. Values of BLQ were assigned a value of 0 ng/mL for mean calculations. Concentration values and derived TK parameters were reported to three significant figures.

[1] = 5 mg/kg, oral 5 mg/kg, Study Day 14, Female
[2] = 15 mg/kg, oral 15 mg/kg, Study Day 1, Female
[3] = 15 mg/kg, oral 15 mg/kg, Study Day 14, Female

Which results are given for `CN1CCN(c2ccc(Nc3ncc4cc5n(c4n3)C3(CCCCC3)CNC5=O)nc2)CC1` [Compound 1, 2′-((5-(4-methylpiperazin-1-yl)pyridin-2-yl)amino)-7′,8′-dihydro-6′H-spiro[cyclohexane-1,9′-pyrazino[1′,2′:1,5]pyrrolo[2,3-d]pyrimidin]-6′-one]?
Tmax [1]: 1 h; half-life [1]: 4.41 h; concentration at 0.5 h (15 mg/kg, Individual Compound 1 Plasma Concentration, daily oral 15 mg/kg, Day 1, Female, 0.5 h): 1050 ng/mL; concentration at 2 h (15 mg/kg, Individual Compound 1 Plasma Concentration, daily oral 15 mg/kg, Day 1, Female, 2 h): 1820 ng/mL; concentration at 4 h (15 mg/kg, Individual Compound 1 Plasma Concentration, daily oral 15 mg/kg, Day 1, Female, 4 h): 1750 ng/mL; concentration at 8 h (15 mg/kg, Individual Compound 1 Plasma Concentration, daily oral 15 mg/kg, Day 1, Female, 8 h): 1250 ng/mL; concentration at 12 h (15 mg/kg, Individual Compound 1 Plasma Concentration, daily oral 15 mg/kg, Day 1, Female, 12 h): 1010 ng/mL; concentration at 24 h (15 mg/kg, Individual Compound 1 Plasma Concentration, daily oral 15 mg/kg, Day 1, Female, 24 h): 63.9 ng/mL; concentration at 0.5 h (15 mg/kg, Individual Compound 1 Plasma Concentration, daily oral 15 mg/kg, Day 14, Female, 0.5 h): 908 ng/mL; concentration at 1 h (15 mg/kg, Individual Compound 1 Plasma Concentration, daily oral 15 mg/kg, Day 14, Female, 1 h): 1410 ng/mL; concentration at 4 h (15 mg/kg, Individual Compound 1 Plasma Concentration, daily oral 15 mg/kg, Day 14, Female, 4 h): 1580 ng/mL; concentration at 8 h (15 mg/kg, Individual Compound 1 Plasma Concentration, daily oral 15 mg/kg, Day 14, Female, 8 h): 996 ng/mL; concentration at 12 h (15 mg/kg, Individual Compound 1 Plasma Concentration, daily oral 15 mg/kg, Day 14, Female, 12 h): 1060 ng/mL; concentration at 24 h (15 mg/kg, Individual Compound 1 Plasma Concentration, daily oral 15 mg/kg, Day 14, Female, 24 h): 106 ng/mL; concentration at […] (15 mg/kg, Individual Compound 1 Plasma Concentration, daily oral 15 mg/kg, Day 14, Female, […]): 117 ng/mL; concentration at 0.5 h (15 mg/kg, Mean Compound 1 Plasma Concentration, oral 15 mg/kg, Day 1, 0.5 h, Female): 1180 ng/mL; concentration at 1 h (15 mg/kg, Mean Compound 1 Plasma Concentration, oral 15 mg/kg, Day 1, 1 h, Female): 1530 ng/mL; concentration at 2 h (15 mg/kg, Mean Compound 1 Plasma Concentration, oral 15 mg/kg, Day 1, 2 h, Female): 1910 ng/mL; concentration at 4 h (15 mg/kg, Mean Compound 1 Plasma Concentration, oral 15 mg/kg, Day 1, 4 h, Female): 1690 ng/mL; concentration at 8 h (15 mg/kg, Mean Compound 1 Plasma Concentration, oral 15 mg/kg, Day 1, 8 h, Female): 1440 ng/mL; concentration at 12 h (15 mg/kg, Mean Compound 1 Plasma Concentration, oral 15 mg/kg, Day 1, 12 h, Female): 916 ng/mL; concentration at 24 h (15 mg/kg, Mean Compound 1 Plasma Concentration, oral 15 mg/kg, Day 1, 24 h, Female): 84.5 ng/mL; concentration at […] (15 mg/kg, Mean Compound 1 Plasma Concentration, oral 15 mg/kg, Day 1, […], Female): 109 ng/mL; concentration at 0.5 h (15 mg/kg, Mean Compound 1 Plasma Concentration, oral 15 mg/kg, Day 14, 0.5 h, Female): 1170 ng/mL; concentration at 1 h (15 mg/kg, Mean Compound 1 Plasma Concentration, oral 15 mg/kg, Day 14, 1 h, Female): 1450 ng/mL; concentration at 2 h (15 mg/kg, Mean Compound 1 Plasma Concentration, oral 15 mg/kg, Day 14, 2 h, Female): 1490 ng/mL; concentration at 4 h (15 mg/kg, Mean Compound 1 Plasma Concentration, oral 15 mg/kg, Day 14, 4 h, Female): 1570 ng/mL; concentration at 8 h (15 mg/kg, Mean Compound 1 Plasma Concentration, oral 15 mg/kg, Day 14, 8 h, Female): 979 ng/mL; concentration at 12 h (15 mg/kg, Mean Compound 1 Plasma Concentration, oral 15 mg/kg, Day 14, 12 h, Female): 805 ng/mL; concentration at 24 h (15 mg/kg, Mean Compound 1 Plasma Concentration, oral 15 mg/kg, Day 14, 24 h, Female): 130 ng/mL; concentration at […] (15 mg/kg, Mean Compound 1 Plasma Concentration, oral 15 mg/kg, Day 14, […], Female): 131 ng/mL; AUC(0-inf) [2]: 23700 ng·h/mL; AUC(0-t) [2]: 23200 ng·h/mL; Cmax [2]: 1910 ng/mL; Tmax [2]: 2 h; AUC(0-inf) [3]: 20800 ng·h/mL; AUC(0-t) [3]: 19800 ng·h/mL; Cmax [3]: 1570 ng/mL; Tmax [3]: 4 h; half-life [3]: 5.24 h; concentration at 0.5 h (30 mg/kg, Individual Compound 1 Plasma Concentration, daily oral 30 mg/kg, Day 1, Female, 0.5 h): 2030 ng/mL; concentration at 1 h (30 mg/kg, Individual Compound 1 Plasma Concentration, daily oral 30 mg/kg, Day 1, Female, 1 h): 2500 ng/mL; concentration at 2 h (30 mg/kg, Individual Compound 1 Plasma Concentration, daily oral 30 mg/kg, Day 1, Female, 2 h): 3440 ng/mL; concentration at 4 h (30 mg/kg, Individual Compound 1 Plasma Concentration, daily oral 30 mg/kg, Day 1, Female, 4 h): 2570 ng/mL; concentration at 8 h (30 mg/kg, Individual Compound 1 Plasma Concentration, daily oral 30 mg/kg, Day 1, Female, 8 h): 2480 ng/mL; concentration at 12 h (30 mg/kg, Individual Compound 1 Plasma Concentration, daily oral 30 mg/kg, Day 1, Female, 12 h): 2000 ng/mL; concentration at 24 h (30 mg/kg, Individual Compound 1 Plasma Concentration, daily oral 30 mg/kg, Day 1, Female, 24 h): 310 ng/mL; concentration at […] (30 mg/kg, Individual Compound 1 Plasma Concentration, daily oral 30 mg/kg, Day 1, Female, […]): 114 ng/mL; concentration at 0.5 h (30 mg/kg, Individual Compound 1 Plasma Concentration, daily oral 30 mg/kg, Day 14, Female, 0.5 h): 1450 ng/mL; concentration at 1 h (30 mg/kg, Individual Compound 1 Plasma Concentration, daily oral 30 mg/kg, Day 14, Female, 1 h): 2740 ng/mL; concentration at 2 h (30 mg/kg, Individual Compound 1 Plasma Concentration, daily oral 30 mg/kg, Day 14, Female, 2 h): 2170 ng/mL; concentration at 4 h (30 mg/kg, Individual Compound 1 Plasma Concentration, daily oral 30 mg/kg, Day 14, Female, 4 h): 2700 ng/mL; concentration at 8 h (30 mg/kg, Individual Compound 1 Plasma Concentration, daily oral 30 mg/kg, Day 14, Female, 8 h): 1970 ng/mL; concentration at 12 h (30 mg/kg, Individual Compound 1 Plasma Concentration, daily oral 30 mg/kg, Day 14, Female, 12 h): 2290 ng/mL; concentration at 24 h (30 mg/kg, Individual Compound 1 Plasma Concentration, daily oral 30 mg/kg, Day 14, Female, 24 h): 280 ng/mL
